Reference: BindingDB's records for doi:10.1007/BF00173012 (Sandoz Pharma, 1994)
*1 amine or outer side, *2 acyl side, *3 side chain or, on linkers, in order; H or OH if unused. Where a SMILES comes first, the peptide text is derived from it. Bridges are numbered along the chain shown (N, C = ends). [ ]: non-standard residue; d: D form. Phe(4-Cl) = N[C@@H](Cc1ccc(Cl)cc1)C(=O)O; d2Nal = N[C@H](Cc1ccc2ccccc2c1)C(=O)O; X1 = O=C(C(N[*:1])S[*:3])[*:2]; Mpa = O=C(O)CCS

Key:
[1] = target: Somatostatin receptor type 3 (Mus musculus, UniProt P30935)
Chain of Somatostatin receptor type 3 (P30935 whole entry): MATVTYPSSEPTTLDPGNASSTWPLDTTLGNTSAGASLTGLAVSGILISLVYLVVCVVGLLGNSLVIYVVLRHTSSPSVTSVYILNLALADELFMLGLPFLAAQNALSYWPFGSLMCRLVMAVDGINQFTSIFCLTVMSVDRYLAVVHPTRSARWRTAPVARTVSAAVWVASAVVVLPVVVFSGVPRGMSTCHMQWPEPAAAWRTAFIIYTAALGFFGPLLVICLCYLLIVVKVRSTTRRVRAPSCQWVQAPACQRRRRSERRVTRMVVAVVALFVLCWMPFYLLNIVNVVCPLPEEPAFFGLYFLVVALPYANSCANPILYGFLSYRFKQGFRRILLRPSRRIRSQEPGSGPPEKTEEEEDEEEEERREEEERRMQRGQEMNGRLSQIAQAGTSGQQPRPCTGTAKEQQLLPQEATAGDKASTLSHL

[2] = target: Somatostatin receptor type 1 (Homo sapiens, UniProt P30872)
Chain of Somatostatin receptor type 1 (P30872 whole entry): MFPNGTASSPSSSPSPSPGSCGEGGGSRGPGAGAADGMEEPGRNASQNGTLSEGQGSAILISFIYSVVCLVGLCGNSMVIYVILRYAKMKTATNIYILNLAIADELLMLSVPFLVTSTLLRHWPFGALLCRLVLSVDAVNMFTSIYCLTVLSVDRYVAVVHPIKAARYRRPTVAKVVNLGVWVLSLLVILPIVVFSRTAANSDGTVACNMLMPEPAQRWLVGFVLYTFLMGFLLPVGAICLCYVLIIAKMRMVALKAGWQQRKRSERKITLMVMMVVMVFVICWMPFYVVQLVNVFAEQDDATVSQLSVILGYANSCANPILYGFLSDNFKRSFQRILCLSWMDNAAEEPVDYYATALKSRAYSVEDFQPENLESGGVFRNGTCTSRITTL

[3] = target: Somatostatin receptor type 2 (Mus musculus, UniProt P30875)
Chain of Somatostatin receptor type 2 (P30875 whole entry): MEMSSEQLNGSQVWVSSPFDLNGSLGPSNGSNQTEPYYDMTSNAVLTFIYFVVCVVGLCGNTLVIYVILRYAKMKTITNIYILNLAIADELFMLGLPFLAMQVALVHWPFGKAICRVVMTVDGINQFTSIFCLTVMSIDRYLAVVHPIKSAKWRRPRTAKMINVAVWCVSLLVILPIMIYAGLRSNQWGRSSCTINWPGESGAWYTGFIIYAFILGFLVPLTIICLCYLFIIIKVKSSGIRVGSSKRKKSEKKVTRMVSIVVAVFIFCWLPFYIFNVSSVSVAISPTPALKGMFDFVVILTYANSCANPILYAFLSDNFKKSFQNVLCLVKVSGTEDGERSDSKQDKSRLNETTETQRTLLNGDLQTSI

[4] = target: Somatostatin receptor type 4 (Mus musculus, UniProt P49660)
Chain of Somatostatin receptor type 4 (P49660 whole entry): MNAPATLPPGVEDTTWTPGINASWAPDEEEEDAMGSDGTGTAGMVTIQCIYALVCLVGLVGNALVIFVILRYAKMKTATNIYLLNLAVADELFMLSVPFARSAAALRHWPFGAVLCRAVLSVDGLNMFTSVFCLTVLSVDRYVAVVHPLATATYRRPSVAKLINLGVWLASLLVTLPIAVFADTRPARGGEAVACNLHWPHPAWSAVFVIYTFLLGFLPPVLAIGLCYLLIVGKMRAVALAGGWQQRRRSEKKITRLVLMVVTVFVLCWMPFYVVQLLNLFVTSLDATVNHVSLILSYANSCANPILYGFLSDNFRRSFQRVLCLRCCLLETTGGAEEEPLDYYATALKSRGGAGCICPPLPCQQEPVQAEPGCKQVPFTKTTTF

[5] = target: T1, Somatostatin receptor type 5 (Rattus norvegicus, UniProt P30938)
T1 sequence (P30938 whole entry): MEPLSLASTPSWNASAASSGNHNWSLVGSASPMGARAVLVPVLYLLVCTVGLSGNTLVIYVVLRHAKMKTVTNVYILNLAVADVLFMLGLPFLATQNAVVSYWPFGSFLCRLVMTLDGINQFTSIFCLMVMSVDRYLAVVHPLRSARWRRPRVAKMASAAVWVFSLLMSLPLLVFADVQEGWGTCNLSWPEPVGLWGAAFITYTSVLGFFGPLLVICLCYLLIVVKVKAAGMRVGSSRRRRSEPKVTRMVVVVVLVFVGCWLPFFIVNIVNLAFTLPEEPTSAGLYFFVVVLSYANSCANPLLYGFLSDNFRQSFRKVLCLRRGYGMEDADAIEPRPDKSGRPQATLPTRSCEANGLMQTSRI

Ki [1]	Ki [2]	Ki [3]	Ki [4]	Ki [5]	SMILES
0.6 nM	100 nM	1 nM	1.41 nM		C[C@@H](O)[C@@H]1NC(=O)[C@H](Cc2ccc(O)cc2)NC(=O)[C@H]([C@@H](C)O)NC(=O)[C@H](CCCCN)NC(=O)[C@H](Cc2c[nH]c3ccccc23)NC(=O)[C@H](Cc2ccccc2)NC(=O)[C@H](Cc2ccccc2)NC(=O)[C@H](CC(N)=O)NC(=O)[C@H](CCCCN)NC(=O)CCCCC[C@@H](C(=O)O)NC(=O)[C@H](CO)NC1=O [CGP-23996]
0.01 nM	1000 nM	> 10000 nM	158 nM	42.6 nM	CC(C)[C@H](NC(=O)[C@H](CCCCN)NC(=O)[C@@H](Cc1c[nH]c2ccccc12)NC(=O)[C@H](Cc1ccc(O)cc1)NC(=O)[C@H](Cc1ccccc1)NC(=O)[C@H](N)Cc1ccccc1)C(=O)N[C@@H](Cc1ccccc1)C(=O)N[C@H](Cc1ccc2ccccc2c1)C(N)=O [CAS_150155-61-6] (H-[dF]FY[dW]KVF[d2Nal]-NH2)
		0.01 nM			C[C@@H](O)[C@H](NC(=O)[C@@H]1CSSC[C@H](NC(=O)[C@H](N)Cc2ccc3ccccc3c2)C(=O)N[C@@H](Cc2ccc(O)cc2)C(=O)N[C@H](Cc2c[nH]c3ccccc23)C(=O)N[C@@H](CCCCN)C(=O)N[C@@H]([C@@H](C)O)C(=O)N1)C(N)=O [D-Nal-c[Cys-Tyr-D-Trp-Lys-Thr-Cys]-Thr-NH2]
22.9 nM		0.1 nM	170 nM		CC(C)[C@@H]1NC(=O)[C@H](CCCCN)NC(=O)[C@@H](Cc2c[nH]c3ccccc23)NC(=O)[C@H](Cc2ccc(O)cc2)NC(=O)[C@@H](NC(=O)[C@H](N)Cc2ccccc2)CSSC[C@@H](C(=O)N[C@@H](Cc2c[nH]c3ccccc23)C(N)=O)NC1=O [CAS_71306] (H-[dF]CY[dW]KVCW-NH2; disulfide 2-7)
245 nM		355 nM	363 nM	3.89 nM	CC(C)[C@@H]1NC(=O)[C@H](CCCCN)NC(=O)[C@@H](Cc2c[nH]c3ccccc23)NC(=O)[C@H](Cc2ccc(O)cc2)NC(=O)CCSSC(C(=O)N[C@@H](Cc2ccccc2)C(N)=O)NC1=O (some centres undefined) [CAS_117580-24-2] ([Mpa]Y[dW]KV[X1]F-NH2; disulfide 1-6)
		0.01 nM	1.81 nM		C[C@@H](O)[C@@H]1NC(=O)[C@H](Cc2ccccc2)NC(=O)[C@H]([C@@H](C)O)NC(=O)[C@H](CCCCN)NC(=O)[C@@H](Cc2c[nH]c3ccccc23)NC(=O)[C@H](Cc2ccccc2)NC(=O)[C@H](Cc2ccc(Cl)cc2)NC(=O)[C@H](CC(N)=O)NC(=O)[C@H](CCCCN)NC(=O)[C@@H](N)CSSC[C@@H](C(=O)O)NC(=O)[C@H](CO)NC1=O [EC5-21] (H-CKN[Phe(4-Cl)]F[dW]KTFTSC-OH; disulfide 1-12)
